Data taken from US8871753B2, “Macrocyclic compounds and their use as kinase inhibitors” (Incyte Corporation, priority 2008, dated 2014).
Where a name gives a salt, the structure may show the parent alone.

Columns and labels:
[1] = from Nc1cncc(CCc2cc(Nc3nc(Cl)ncc3F)ccc2N)c1; cn_pd bond; 13-membered ring; Pd(OAc)2/Xantphos/Cs2CO3/Et3N; 1,4-dioxane; 158.0 mM; 160.0 °C; 0.33 h
TYK2 = TYK2 (Homo sapiens, UniProt P29597); assay: TYK2 kinase inhibition (Table A1); assay type: biochemical; conditions: Table D1
TYK2, sequence (P29597 whole entry): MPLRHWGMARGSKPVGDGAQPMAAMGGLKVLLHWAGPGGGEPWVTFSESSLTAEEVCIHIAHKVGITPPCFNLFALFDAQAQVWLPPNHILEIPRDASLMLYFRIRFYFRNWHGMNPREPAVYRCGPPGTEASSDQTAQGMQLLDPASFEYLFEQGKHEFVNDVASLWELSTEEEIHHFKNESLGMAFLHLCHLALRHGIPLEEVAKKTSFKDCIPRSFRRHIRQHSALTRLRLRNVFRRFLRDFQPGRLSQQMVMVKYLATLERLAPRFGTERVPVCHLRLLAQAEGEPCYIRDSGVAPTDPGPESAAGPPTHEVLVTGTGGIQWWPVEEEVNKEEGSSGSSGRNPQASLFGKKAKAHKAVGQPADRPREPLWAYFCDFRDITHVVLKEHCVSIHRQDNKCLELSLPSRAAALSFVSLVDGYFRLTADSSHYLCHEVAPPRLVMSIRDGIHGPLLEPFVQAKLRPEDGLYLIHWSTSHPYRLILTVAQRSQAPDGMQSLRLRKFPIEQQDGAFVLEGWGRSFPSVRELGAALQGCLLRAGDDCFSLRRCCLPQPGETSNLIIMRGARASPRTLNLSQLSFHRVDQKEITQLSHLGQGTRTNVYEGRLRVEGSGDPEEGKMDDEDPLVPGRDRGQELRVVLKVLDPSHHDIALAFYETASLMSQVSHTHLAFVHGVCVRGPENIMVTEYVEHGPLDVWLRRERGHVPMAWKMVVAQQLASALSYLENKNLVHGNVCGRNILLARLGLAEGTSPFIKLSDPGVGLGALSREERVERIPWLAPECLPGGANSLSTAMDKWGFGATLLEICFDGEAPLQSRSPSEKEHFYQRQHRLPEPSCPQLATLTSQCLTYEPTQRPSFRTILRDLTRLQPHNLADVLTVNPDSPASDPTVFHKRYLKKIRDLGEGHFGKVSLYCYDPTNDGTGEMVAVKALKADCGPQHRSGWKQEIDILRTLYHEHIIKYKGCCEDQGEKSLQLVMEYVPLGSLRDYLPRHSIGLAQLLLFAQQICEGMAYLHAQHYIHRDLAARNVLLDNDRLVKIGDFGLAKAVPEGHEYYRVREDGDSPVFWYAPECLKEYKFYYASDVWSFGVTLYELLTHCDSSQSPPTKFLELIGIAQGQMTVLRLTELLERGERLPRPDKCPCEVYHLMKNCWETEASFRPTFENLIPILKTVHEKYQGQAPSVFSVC

[2] = molecular target: T1, human JAK3 (a.a. 781-1124) (Homo sapiens, UniProt P52333); assay: In vitro JAK kinase assay (HTRF, phosphorylation of a biotinylated peptide), JAK3; assay type: biochemical; conditions: Table D1
T1 construct: JAK3 (a.a. 781-1124); His tag (N); made in house; host or cells: insect cells (baculovirus)
T1 sequence (P52333 781-1124): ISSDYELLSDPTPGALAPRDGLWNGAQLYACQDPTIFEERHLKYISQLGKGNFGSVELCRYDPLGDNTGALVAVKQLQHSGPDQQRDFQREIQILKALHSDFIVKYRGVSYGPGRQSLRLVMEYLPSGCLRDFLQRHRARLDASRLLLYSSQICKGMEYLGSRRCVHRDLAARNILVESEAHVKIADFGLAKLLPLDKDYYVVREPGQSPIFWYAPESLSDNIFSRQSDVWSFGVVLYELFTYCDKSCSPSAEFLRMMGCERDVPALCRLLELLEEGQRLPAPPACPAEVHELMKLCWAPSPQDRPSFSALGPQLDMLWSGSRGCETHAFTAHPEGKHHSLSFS
Summary of the method: (§1)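 Kinase reactions ran at room temperature for 1 h with ATP matched per isoform (JAK1 90 μM, JAK2 30 μM, JAK3 3 μM). After an EDTA stop, the phosphorylated biotin-peptide was read by HTRF using Eu-Py20 and SA-APC after 40 min binding.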

[3] = molecular target: T2, human JAK2 (a.a. 828-1132) (Homo sapiens, UniProt O60674); assay: In vitro JAK kinase assay (HTRF, phosphorylation of a biotinylated peptide), JAK2; assay type: biochemical; conditions: Table D1
T2 construct: JAK2 (a.a. 828-1132); His tag (N); made in house; host or cells: insect cells (baculovirus)
T2 sequence (O60674 828-1132): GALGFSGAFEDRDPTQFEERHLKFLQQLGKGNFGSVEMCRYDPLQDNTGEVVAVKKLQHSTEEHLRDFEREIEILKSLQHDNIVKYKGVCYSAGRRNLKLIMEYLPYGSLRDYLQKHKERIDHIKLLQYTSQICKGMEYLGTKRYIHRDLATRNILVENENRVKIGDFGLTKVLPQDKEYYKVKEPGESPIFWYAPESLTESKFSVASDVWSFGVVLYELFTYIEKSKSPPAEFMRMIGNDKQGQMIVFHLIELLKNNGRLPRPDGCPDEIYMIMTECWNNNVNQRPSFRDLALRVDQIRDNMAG
Summary of the method: as §1

[4] = molecular target: T3, Recombinant Human Anaplastic Lymphoma Kinase (Homo sapiens, UniProt Q9UM73); assay: ALK HTRF kinase assay; assay type: biochemical; conditions: Table D1; 90 μM ATP
T3 construct: purchased Invitrogen, Carlsbad, Calif
T3 sequence (Q9UM73 19-1620): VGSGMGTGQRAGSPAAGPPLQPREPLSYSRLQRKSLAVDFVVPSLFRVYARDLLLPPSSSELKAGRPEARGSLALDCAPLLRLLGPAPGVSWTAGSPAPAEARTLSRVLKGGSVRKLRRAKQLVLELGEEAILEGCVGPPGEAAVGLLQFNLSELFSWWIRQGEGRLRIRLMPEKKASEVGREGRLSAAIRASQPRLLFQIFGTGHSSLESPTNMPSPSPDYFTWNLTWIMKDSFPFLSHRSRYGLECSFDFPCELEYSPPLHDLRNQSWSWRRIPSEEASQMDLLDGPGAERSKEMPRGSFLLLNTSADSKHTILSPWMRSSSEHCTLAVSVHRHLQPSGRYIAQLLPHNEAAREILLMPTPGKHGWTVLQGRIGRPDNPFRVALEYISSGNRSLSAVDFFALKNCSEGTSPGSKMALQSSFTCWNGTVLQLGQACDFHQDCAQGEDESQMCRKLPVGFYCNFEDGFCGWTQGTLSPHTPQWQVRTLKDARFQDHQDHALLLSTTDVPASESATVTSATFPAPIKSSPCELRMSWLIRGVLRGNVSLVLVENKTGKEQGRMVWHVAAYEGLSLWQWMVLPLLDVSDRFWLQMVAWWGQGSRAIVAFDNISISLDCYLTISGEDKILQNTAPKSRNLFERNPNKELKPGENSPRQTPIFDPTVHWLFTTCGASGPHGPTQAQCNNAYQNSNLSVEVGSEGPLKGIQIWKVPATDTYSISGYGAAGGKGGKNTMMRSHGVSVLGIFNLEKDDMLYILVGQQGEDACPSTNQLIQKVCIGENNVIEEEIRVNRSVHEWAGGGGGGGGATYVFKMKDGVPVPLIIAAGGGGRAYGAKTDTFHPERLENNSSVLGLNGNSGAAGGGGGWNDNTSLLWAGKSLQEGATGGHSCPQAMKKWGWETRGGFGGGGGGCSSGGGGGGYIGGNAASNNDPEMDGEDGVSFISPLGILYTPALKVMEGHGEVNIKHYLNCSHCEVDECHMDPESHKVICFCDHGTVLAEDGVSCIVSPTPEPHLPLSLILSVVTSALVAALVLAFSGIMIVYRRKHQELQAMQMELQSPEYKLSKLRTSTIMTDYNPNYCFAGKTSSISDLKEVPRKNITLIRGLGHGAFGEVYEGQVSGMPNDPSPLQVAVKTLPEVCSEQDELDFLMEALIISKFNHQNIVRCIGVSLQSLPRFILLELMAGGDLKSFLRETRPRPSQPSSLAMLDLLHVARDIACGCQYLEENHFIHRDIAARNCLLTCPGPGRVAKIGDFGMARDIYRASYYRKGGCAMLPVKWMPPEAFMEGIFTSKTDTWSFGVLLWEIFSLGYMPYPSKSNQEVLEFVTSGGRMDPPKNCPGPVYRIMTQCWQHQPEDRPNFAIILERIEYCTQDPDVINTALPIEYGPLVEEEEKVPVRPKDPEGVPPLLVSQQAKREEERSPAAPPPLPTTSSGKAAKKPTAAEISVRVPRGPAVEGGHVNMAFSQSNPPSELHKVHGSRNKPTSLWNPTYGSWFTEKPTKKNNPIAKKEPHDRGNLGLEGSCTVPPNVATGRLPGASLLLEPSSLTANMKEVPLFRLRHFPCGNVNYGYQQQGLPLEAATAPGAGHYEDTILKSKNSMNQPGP
Summary of the method: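 Recombinant human ALK phosphorylated a biotinylated synthetic peptide. Phosphotyrosine was detected by TR-FRET between a Eu-labelled anti-phosphotyrosine antibody and streptavidin-allophycocyanin. IC50 values came from fitting signal against inhibitor concentration to a four-parameter logistic equation with variable Hill slope.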

[5] = molecular target: T4, human JAK1 (a.a. 837-1142) (Homo sapiens, UniProt P23458); assay: In vitro JAK kinase assay (HTRF, phosphorylation of a biotinylated peptide), JAK1; assay type: biochemical; conditions: Table D1; read-out: JAK1 IC50
T4 construct: human JAK1 (a.a. 837-1142); His tag (N); made in house; host or cells: insect cells (baculovirus)
T4 sequence (P23458 849-1154): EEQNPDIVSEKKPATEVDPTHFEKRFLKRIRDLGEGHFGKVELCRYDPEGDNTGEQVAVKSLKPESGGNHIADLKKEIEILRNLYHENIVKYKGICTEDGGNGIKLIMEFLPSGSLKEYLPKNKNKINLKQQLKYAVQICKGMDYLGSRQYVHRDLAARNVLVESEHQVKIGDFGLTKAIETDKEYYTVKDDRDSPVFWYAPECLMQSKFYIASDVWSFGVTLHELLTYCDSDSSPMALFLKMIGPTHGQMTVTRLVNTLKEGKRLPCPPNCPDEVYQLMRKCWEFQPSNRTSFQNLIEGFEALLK
Summary of the method: as §1

Structure (SMILES)	ring closure, yield after HPLC [1] [%]	IC50 (TYK2) [nM]	IC50 [2] [nM]	IC50 [3] [nM]	IC50 [4] [nM]	IC50 [5] [nM]
Nc1ccc2cc1CCc1cncc(c1)Nc1ncc(F)c(n1)N2	8	–	–	–	–	–
O=C(Nc1cc2cc(c1)OCCSc1cccc(c1)Nc1nc(ncc1Cl)N2)c1ccc2occc2c1 [Example D61, N-[6-Chloro-17-oxa-14-thia-2,4,8,24-tetraazatetracyclo[16.3.1.1(3,7).1(9,13)]tetracosa-1(22),3(24),4,6,9(23),10,12,18,20-nonaen-20-yl]-1-benzofuran-5-carboxamide trifluoroacetate]	–	8	41	2.1	> 10000	18
O=C(Nc1cc2cc(c1)OCCSc1cccc(c1)Nc1nc(ncc1Cl)N2)c1ccco1 [Example D62, N-[6-Chloro-17-oxa-14-thia-2,4,8,24-tetraazatetracyclo[16.3.1.1(3,7).1(9,13)]tetracosa-1(22),3(24),4,6,9(23),10,12,18,20-nonaen-20-yl]-2-furamide trifluoroacetate]	–	6.1	18	2.1	380	7.3
O=C(Nc1cc2cc(c1)OCCSc1cccc(c1)Nc1nc(ncc1Cl)N2)c1cccs1 [Example D63, N-[6-Chloro-17-oxa-14-thia-2,4,8,24-tetraazatetracyclo[16.3.1.1(3,7).1(9,13)]tetracosa-1(22),3(24),4,6,9(23),10,12,18,20-nonaen-20-yl]thiophene-2-carboxamide trifluoroacetate]	–	5.4	19	1.5	610	6.8
O=C(Cc1ccccc1)Nc1cc2cc(c1)OCCSc1cccc(c1)Nc1nc(ncc1Cl)N2 [Example D64, trifluoroacetate]	–	3.7	8.4	0.2	450	3.8
O=C(Nc1ccccc1)Nc1cc2cc(c1)OCCSc1cccc(c1)Nc1nc(ncc1Cl)N2 [Example D65, N-[6-Chloro-17-oxa-14-thia-2,4,8,24-tetraazatetracyclo[16.3.1.1(3,7).1(9,13)]tetracosa-1(22),3(24),4,6,9(23),10,12,18,20-nonaen-20-yl]-N′-phenylurea trifluoroacetate]	–	6.4	16	5.1	> 1000	18
O=C(NCc1ccccc1)Nc1cc2cc(c1)OCCSc1cccc(c1)Nc1nc(ncc1Cl)N2 [Example D66, N-Benzyl-N′-[6-chloro-17-oxa-14-thia-2,4,8,24-tetraazatetracyclo[16.3.1.1(3,7).1(9,13)]tetracosa-1(22),3(24),4,6,9(23),10,12,18,20-nonaen-20-yl]urea trifluoroacetate]	–	3.4	9.6	3	770	7.3
O=C(NCc1ccco1)Nc1cc2cc(c1)OCCSc1cccc(c1)Nc1nc(ncc1Cl)N2 [Example D67, N-[6-Chloro-17-oxa-14-thia-2,4,8,24-tetraazatetracyclo[16.3.1.1(3,7).1(9,13)]tetracosa-1(22),3(24),4,6,9(23),10,12,18,20-nonaen-20-yl]-N′-(2-furylmethyl)urea trifluoroacetate]	–	2.4	8.4	1.8	> 1000	3.2
O=S(=O)(Nc1cc2cc(c1)OCCSc1cccc(c1)Nc1nc(ncc1Cl)N2)c1ccccc1 [Example D68, N-[6-Chloro-17-oxa-14-thia-2,4,8,24-tetraazatetracyclo[16.3.1.1(3,7).1(9,13)]tetracosa-1(22),3(24),4,6,9(23),10,12,18,20-nonaen-20-yl]benzenesulfonamide trifluoroacetate]	–	32	36	5.8	340	14
Cc1nc(S(=O)(=O)Nc2cc3cc(c2)OCCSc2cccc(c2)Nc2nc(ncc2Cl)N3)cn1C [Example D69, N-[6-Chloro-17-oxa-14-thia-2,4,8,24-tetraazatetracyclo[16.3.1.1(3,7).1(9,13)]tetracosa-1(22),3(24),4,6,9(23),10,12,18,20-nonaen-20-yl]-1,2-dimethyl-1H-imidazole-4-sulfonamide bis(trifluoroacetate)]	–	8.4	8.6	1.4	160	3.5
Clc1cnc2nc1Nc1cccc(c1)OCCNc1cccc(c1)N2 [Example D70, 6-Chloro-14-oxa-2,4,8,17,24-pentaazatetracyclo[16.3.1.1(3,7).1(9,13)]tetracosa-1(22),3(24),4,6,9(23),10,12,18,20-nonaene bis(trifluoroacetate)]	–	5	8.1	2.1	375	9
CC(=O)N1Cc2cccc(c2)Nc2nc(ncc2Cl)Nc2cccc1c2 [Example D71, 15-Acetyl-6-chloro-2,4,8,15,22-pentaazatetracyclo[14.3.1.1(3,7).1(9,13)]docosa-1(20),3(22),4,6,9(21),10,12,16,18-nonaene trifluoroacetate]	–	300	65	187	> 1000	151
Clc1cnc2nc1Nc1cccc(c1)NCCOc1cccc(c1)N2 [Example D72, 6-Chloro-17-oxa-2,4,8,14,24-pentaazatetracyclo[16.3.1.1(3,7).1(9,13)]tetracosa-1(22),3(24),4,6,9(23),10,12,18,20-nonaene bis(trifluoroacetate)]	–	6.9	7.4	2.2	772	12
Clc1cnc2nc1Nc1cccc(c1)CNCc1cccc(c1)N2 [Example D73, 6-Chloro-2,4,8,15,23-pentaazatetracyclo[15.3.1.1(3,7).1(9,13)]tricosa-1(21),3(23),4,6,9(22),10,12,17,19-nonaene bis(trifluoroacetate)]	–	191	67	106	1330	83
CC(=O)N1Cc2cccc(c2)Nc2ncc(Cl)c(n2)Nc2cccc(c2)C1 [Example D74, 15-Acetyl-6-chloro-2,4,8,15,23-pentaazatetracyclo[15.3.1.1(3,7).1(9,13)]tricosa-1(21),3(23),4,6,9(22),10,12,17,19-nonaene trifluoroacetate]	–	343	225	83	> 1000	160
Clc1cnc2nc1Nc1cccc(c1)NCCCc1cccc(c1)N2 [Example D75, 6-Chloro-2,4,8,14,24-pentaazatetracyclo[16.3.1.1(3,7).1(9,13)]tetracosa-1(22),3(24),4,6,9(23),10,12,18,20-nonaene bis(trifluoroacetate)]	–	60	80	26	1250	50
O=C1CCc2cccc(c2)Nc2nc(ncc2Cl)Nc2cccc(c2)N1 [Example D76, 6-Chloro-2,4,8,17,24-pentaazatetracyclo[16.3.1.1(3,7).1(9,13)]tetracosa-1(22),3(24),4,6,9(23),10,12,18,20-nonaen-16-one trifluoroacetate]	–	13	117	18	2050	11
Clc1cnc2nc1Nc1cccc(c1)CCCNc1cccc(c1)N2 [Example D77, 6-Chloro-2,4,8,17,24-pentaazatetracyclo[16.3.1.1(3,7).1(9,13)]tetracosa-1(22),3(24),4,6,9(23),10,12,18,20-nonaene bis(trifluoroacetate)]	–	5.6	11	3.1	400	8.9
Clc1cnc2nc1Nc1cccc(c1)CCNc1cccc(c1)N2 [Example D78, 6-Chloro-2,4,8,16,23-pentaazatetracyclo[15.3.1.1(3,7).1(9,13)]tricosa-1(21), 3(23),4,6,9(22),10,12,17,19-nonaene bis(trifluoroacetate)]	–	19	30	10	791	30
Clc1cnc2nc1Nc1cccc(c1)SCCNc1cccc(c1)N2 [Example D80, 6-Chloro-14-thia-2,4,8,17,24-pentaazatetracyclo[16.3.1.1(3,7).1(9,13)]tetracosa-1(22),3(24),4,6,9(23),10,12,18,20-nonaene bis(trifluoroacetate)]	–	8.8	23	4.9	570	7.4
N#Cc1ccc2cc1OCCSc1cccc(c1)Nc1nc(ncc1Cl)N2 [Example D81, 6-Chloro-17-oxa-14-thia-2,4,8,24-tetraazatetracyclo[16.3.1.1(3,7).1(9,13)]tetracosa-1(22),3(24),4,6,9(23),10,12,18,20-nonaene-19-carbonitrile trifluoroacetate]	–	53	130	16	> 10000	12
